Assay results taken from US20070128217A1 (priority 2003, published 2007).

Assays:
[1] = tested on: rabbit serum obtained by immunizing a rabbit with the SARS-CoV strain Frankfurt 1; type: binding; parameters: Binding of a rabbit serum to linear peptides / Binding of a rabbit serum to looped peptides / Rabbit serum linear peptides / Rabbit serum looped peptides / Binding of a rabbit serum to linear peptides of protein N of SARS-CoV Urbani (Rabbit serum linear peptides) / Binding of a rabbit serum to looped/cyclic peptides of protein N of SARS-CoV Urbani (Rabbit serum looped peptides): unit not given here
[2] = tested on: control sera (pooled serum of ten healthy LUMC hospital workers; commercial negative donor pooled serum from the Dutch bloodbank); type: binding, human
[3] = tested on: antibodies in sera from SARS patients (sera 1a, 1b, 2, 6, 37, 62, London, SARS-yellow, SARS-green); type: binding, human

| Sequence | Binding of a rabbit serum to linear peptides [1] | Binding of a rabbit serum to looped peptides [1] | Binding of Control Serum Blood-Bank to Looped peptides [2] | Binding of Control serum Blood-bank to linear peptides [2] | Binding of Control serum LUMC to linear peptides [2] | Binding of Control serum LUMC to looped peptides [2] | Binding of serum 1a to linear peptides of protein E of SARS-CoV Urbani [3] | Binding of serum 1a to looped/cyclic peptides of protein E of SARS-CoV Urbani [3] | Binding of serum 1b to linear peptides of protein E of SARS-CoV Urbani [3] | Binding of serum 1b to looped/cyclic peptides of protein E of SARS-CoV Urbani [3] | Binding of serum 2 to linear peptides of protein E of SARS-CoV Urbani [3] | Binding of serum 2 to looped/cyclic peptides of protein E of SARS-CoV Urbani [3] | Binding of serum 6 to linear peptides of protein E of SARS-CoV Urbani [3] | Binding of serum 6 to looped/cyclic peptides of protein E of SARS-CoV Urbani [3] | Binding of serum 37 to linear peptides of protein E of SARS-CoV Urbani [3] | Binding of serum 37 to looped/cyclic peptides of protein E of SARS-CoV Urbani [3] | Binding of serum 62 to linear peptides of protein E of SARS-CoV Urbani [3] | Binding of serum 62 to looped/cyclic peptides of protein E of SARS-CoV Urbani [3] | Binding of serum London to linear peptides of protein E of SARS-CoV Urbani [3] | Binding of serum London to looped/cyclic peptides of protein E of SARS-CoV Urbani [3] | also measured |
| --- | --- | --- | --- | --- | --- | --- | --- | --- | --- | --- | --- | --- | --- | --- | --- | --- | --- | --- | --- | --- | --- |
| LFLAFVVFLLVTLAI | 0.5 | 0.3 | 0.6 | 0.7 | 0.5 | 0.7 | 0.9 | 0.5 | 0.5 | 0.5 | 0.9 | 0.6 | 0.7 | 0.5 | 0.7 | 0.6 | 0.7 | 0.7 | 0.8 | 0.5 | Binding of serum SARS-green to linear peptides of protein E of SARS-CoV Urbani [3]: 0.5; Binding of serum SARS-green to looped/cyclic peptides of protein E of SARS-CoV Urbani [3]: 0.7; Binding of serum SARS-yellow to linear peptides of protein E of SARS-CoV Urbani [3]: 0.2; Binding of serum SARS-yellow to looped/cyclic peptides of protein E of SARS-CoV Urbani [3]: 0.9 |
| LLVTLAILTALRLCA | 0.5 | 0.8 | 0.8 | 0.7 | 0.3 | 0.8 | 0.8 | 0.7 | 0.4 | 0.1 | 0.5 | 0.6 | 0.4 | 0.4 | 0.6 | 0.3 | 0.6 | 0.8 | 0.5 | 0.4 | Binding of serum SARS-green to linear peptides of protein E of SARS-CoV Urbani [3]: 0.4; Binding of serum SARS-green to looped/cyclic peptides of protein E of SARS-CoV Urbani [3]: 0.6; Binding of serum SARS-yellow to linear peptides of protein E of SARS-CoV Urbani [3]: 0.0; Binding of serum SARS-yellow to looped/cyclic peptides of protein E of SARS-CoV Urbani [3]: 0.3 |
| LRLCAYCCNIVNVSL | 0.6 | 0.2 | 0.6 | 0.8 | 0.4 | 0.6 | 0.7 | 0.7 | 0.6 | 0.4 | 0.4 | 0.5 | 0.6 | 0.4 | 0.7 | 0.6 | 0.7 | 0.6 | 0.5 | 0.4 | Binding of serum SARS-green to linear peptides of protein E of SARS-CoV Urbani [3]: 0.3; Binding of serum SARS-green to looped/cyclic peptides of protein E of SARS-CoV Urbani [3]: 0.6; Binding of serum SARS-yellow to linear peptides of protein E of SARS-CoV Urbani [3]: 0.3; Binding of serum SARS-yellow to looped/cyclic peptides of protein E of SARS-CoV Urbani [3]: 0.6 |
| LTALRLCAYCCNIVN | 0.6 | 0.4 | 0.7 | 0.7 | 0.5 | 0.6 | 0.9 | 0.6 | 0.8 | 0.4 | 0.4 | 0.7 | 0.7 | 0.5 | 0.8 | 0.7 | 0.7 | 0.7 | 0.5 | 0.3 | Binding of serum SARS-green to linear peptides of protein E of SARS-CoV Urbani [3]: 0.3; Binding of serum SARS-green to looped/cyclic peptides of protein E of SARS-CoV Urbani [3]: 0.3; Binding of serum SARS-yellow to linear peptides of protein E of SARS-CoV Urbani [3]: 0.2; Binding of serum SARS-yellow to looped/cyclic peptides of protein E of SARS-CoV Urbani [3]: 0.4 |
| LVTLAILTALRLCAY | 0.4 | 0.3 | 0.6 | 0.6 | 0.3 | 0.8 | 0.8 | 0.6 | 0.5 | 0.5 | 0.6 | 1.0 | 0.7 | 0.4 | 0.7 | 0.7 | 0.7 | 0.6 | 0.5 | 0.4 | Binding of serum SARS-green to linear peptides of protein E of SARS-CoV Urbani [3]: 0.3; Binding of serum SARS-green to looped/cyclic peptides of protein E of SARS-CoV Urbani [3]: 0.6; Binding of serum SARS-yellow to linear peptides of protein E of SARS-CoV Urbani [3]: 0.1; Binding of serum SARS-yellow to looped/cyclic peptides of protein E of SARS-CoV Urbani [3]: 0.4 |
